The values below come from paper PMC3204975, “A Photolyase-Like Protein from Agrobacterium tumefaciens with an Iron-Sulfur Cluster” (PLoS ONE, 2011).

One assay concerns the target T1, PhrA (Agrobacterium fabrum, UniProt A9CJC9).
T1 construct: full gene, N-terminal His6-tag (pQE30UA), expressed in E. coli XL1 blue, tag not reported cut
T1 sequence (A9CJC9 1-479): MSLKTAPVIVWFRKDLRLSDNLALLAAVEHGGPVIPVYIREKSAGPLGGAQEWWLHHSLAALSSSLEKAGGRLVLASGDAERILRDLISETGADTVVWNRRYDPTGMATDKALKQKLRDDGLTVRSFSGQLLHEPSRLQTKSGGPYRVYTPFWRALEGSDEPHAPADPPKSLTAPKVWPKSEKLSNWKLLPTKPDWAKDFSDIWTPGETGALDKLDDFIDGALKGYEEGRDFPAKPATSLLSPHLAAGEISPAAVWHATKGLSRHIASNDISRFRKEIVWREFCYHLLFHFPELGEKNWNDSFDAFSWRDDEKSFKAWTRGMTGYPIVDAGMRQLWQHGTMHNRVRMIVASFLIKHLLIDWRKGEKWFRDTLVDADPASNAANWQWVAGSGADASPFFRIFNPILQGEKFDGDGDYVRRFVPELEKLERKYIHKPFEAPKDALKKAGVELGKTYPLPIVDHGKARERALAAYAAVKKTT
The experiment in a line: UV-vis absorption and blue-light photoreduction of co-purified cofactor. The assay is classed as binding. The following applies: co-purified from E. coli; 24 h dark, then 470 nm light with 10 mM DTT, pH 7.8, 4°C.

The target in another assay is T2, PhrB (Agrobacterium fabrum, UniProt A9CH39).
T2 construct: full gene (1524 bp, 507 residues), C-terminal 6xHis-tag (pET-21b), expressed in E. coli ER2566, tag not reported cut
The assay is described as above. It is filed as binding. The following applies: co-purified from E. coli; 24 h dark, then 470 nm and 405 nm light with 20 mM DTT, pH 7.8, 4°C.

T2 sequence (A9CH39 whole entry): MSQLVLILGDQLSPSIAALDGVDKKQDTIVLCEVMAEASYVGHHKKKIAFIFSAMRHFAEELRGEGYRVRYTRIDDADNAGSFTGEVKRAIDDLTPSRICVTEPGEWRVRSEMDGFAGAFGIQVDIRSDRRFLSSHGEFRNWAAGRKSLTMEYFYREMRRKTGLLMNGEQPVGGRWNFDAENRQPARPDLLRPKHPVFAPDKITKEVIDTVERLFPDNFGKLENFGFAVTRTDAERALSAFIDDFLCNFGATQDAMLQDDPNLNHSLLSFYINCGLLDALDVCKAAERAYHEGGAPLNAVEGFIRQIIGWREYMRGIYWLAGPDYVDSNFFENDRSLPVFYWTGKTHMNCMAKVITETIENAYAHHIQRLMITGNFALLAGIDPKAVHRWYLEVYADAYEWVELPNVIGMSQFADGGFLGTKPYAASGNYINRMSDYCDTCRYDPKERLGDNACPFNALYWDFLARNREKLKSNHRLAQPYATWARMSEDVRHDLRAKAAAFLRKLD

As to `Cc1cc2nc3c(=O)[nH]c(=O)nc-3n(C[C@H](O)[C@H](O)[C@H](O)COP(=O)(O)OP(=O)(O)OC[C@H]3O[C@@H](n4cnc5c(N)ncnc54)[C@H](O)[C@@H]3O)c2cc1C` [FAD], the “UV-vis absorption and blue-light photoreduction of co-purified cofactor” value on PhrA is listed as “a nearly stoichiometric ratio of both cofactors to the PhrA apoprotein was determined”; at PhrB, “the FAD cofactor in PhrB is photoreduced to the fully reduced FAD state”.
